# Data taken from patent US20130203830A1, “Compounds for Prevention of Cell Injury” (SULFATEQ B.V., priority 2010, published 2013).
# Entries after “also recorded” stand apart in the source; their conditions may differ.
# Columns and labels:
# DDT-1 cells [1] = assay: Survival of DDT-1 cells after hypothermia (MTS assay); format: cell-based, hamster; details: 3° C.; for resistance / survival of DDT-1 cells in hypothermia: 24 h, ketanserine 400 ng/ml and 10 μg/ml, fluoxetine 0.005 μM 15 min before, CBS siRNA
# Protocol: Cell lines used included NRK (normal rat kidney cells), DDT-1 (hamster ductus deferens muscle cells) and A7R5 (rat vascular smooth muscle cells) cultured in DMEM (Gibco, 41966, UK) and SMAC (rat smooth muscle aortic cells) and THMC (transformed human mesangial cell) cultured in DMEM/F12 (Gibco, E12-719F). All media were supplied with 10% (vol/vol) fetal calf serum and 1% penicillin-streptomycin and cultured at 37° C. in 5% CO2 in 25 cm^2 or 75 cm^2 flasks. For hypothermia experiments, cells were plated in 6 or 96 wells plates and grown to confluence. […] Cell survival was measured by counting of trypan blue stained cells or MTS assay, which measures the number of viable cells. For the latter, 20 μl of MTS solution was added to each well and cells were subsequently placed in the incubator at 37° C. in 5% CO2 for 3 hr before assessing the cell survival by measuring absorption using a microplate reader at 490 nm.
# (§1) MTS assay was performed to investigate cell survival after blocking serotonin transporter and hypothermic treatment.
# Parachlorophenyl-alanine (PCPA; Sigma, C6506-5G) was dissolved in warmed, acidified (pH 6.8) DDT-1 medium and vortexed for 5 min to a final concentration of 1.25 μM. Other concentrations were made from this stock solution. Control experiments were performed with a similar solution without PCPA. Anhydrous creatine (Sigma C4255-25G, USA) was dissolved in cell medium and added to wells to exclude the effect of this component. The treatment continued for 4 days until the concentration of indoleamines inside the cells reached half the baseline value. The cells were placed at 3° C., and MTS assay was performed after 24 h.
# DDT-1 cells [2] = assay: Indoleamine content of DDT-1 cells (Ehrlich reagent); format: cell-based, hamster; details: 4 days of pretreatment, n=8
# Protocol: Ehrlich's reagent was used to quantify the cellular amount of indoles. Qualitative analysis of cellular indoles in cell culture medium at 37° C. and 3° C. was conducted after extraction according to Happold and Hoyle. Five ml of medium was shaken vigorously with 2 ml of xylene. Next, 1 ml of Ehrlich's reagent is applied to the surface of the mixture. Redistribution of xylene through the Ehrlich's reagent induces formation of the rosindole body, a red ring appearing at the lower surface of the xylene layer indicating the presence of indoleamides. The change in indole concentration in DDT-1 cells was measured after washing the cells with PBS, centrifugation (1000 rpm, 5 min) and removal of supernatant. Ehrlich reagent (200 μl) was added to each tube. After 3 min of vortexing, tubes were left for 3 h at 60° C. After centrifugation (1000 rpm, 5 min), color intensity was spectrophotometrically measured at 625 nm. Calibration experiments were carried out using 5-HT (0.025-0.5 mM), which rendered a linear regression with a correlation coefficient (R2) of 0.9996 (data not shown). To verify the accuracy of the Ehrlich reagent experiments automated mass spectrometric analysis was performed on all the samples according to the method set up by Ido P. Kema. […]
# SMAC cells [3] = assay: H2S production in SMAC cells at 3° C. (methylene blue, supernatant); format: cell-based, rat; details: SMAC cells incubated at 3° C. for 24 hour
# Protocol: (§2) Methylene blue method for H2S detection was applied to quantitatively measure the H2S production. Cells were washed with PBS, scraped and centrifuged for 60 sec at 1000 rpm. After removal of the supernatant, zinc acetate 1% in water (200 μl) was added to the cell sediments and the cells were disrupted by small glass beads and vortexed for 20 seconds. Diamine-ferric solution was prepared by mixing 100 μl of a 400 mg N,N-dimethyl-p-phenylenediamine dihydrochloride dissolved in 10 ml 6M HCl and 100 μl of 600 mg ferric chloride in 10 ml 6M HCl. Two hundred μl of this mixture was added to the cell suspension and after an incubation time of 30 min at 37° C. and centrifugation, the amount of methylene blue formed in the supernatant was measured at a wavelength of 670 nm. To measure H2S content of supernatant, the same procedure was repeated for the cell free medium of cells incubated at both 37° C. and 3° C. Blanks were made following the same procedure without cells or using fresh medium. The concentration of H2S was calculated by extrapolation using a standard curve obtained from different concentrations of Methylene blue and spectrophotometric measurement at a wavelength of 670 nm. The amount of H2S present was calculated on the basis that every mole of methylene blue formed in this reaction contains 32 g (1 mole) of captured sulfur.
# Methylene blue method for H2S detection was applied to quantitatively examine the H2S present in cell supernatant at 0 and 24 hr after hypothermic treatment at 3° C.
# SMAC cells [4] = assay: Survival of SMAC cells after hypothermia (MTS assay / cell counting); format: cell-based, rat; details: for effect on the protective effect of serotonin on hypothermic SMAC cells: 24 h, 3° C., ketanserine 400 ng/ml and 10 μg/ml, fluoxetine 0.005 μM, CBS siRNA
# Protocol: Cell lines used included NRK (normal rat kidney cells), DDT-1 (hamster ductus deferens muscle cells) and A7R5 (rat vascular smooth muscle cells) cultured in DMEM (Gibco, 41966, UK) and SMAC (rat smooth muscle aortic cells) and THMC (transformed human mesangial cell) cultured in DMEM/F12 (Gibco, E12-719F). All media were supplied with 10% (vol/vol) fetal calf serum and 1% penicillin-streptomycin and cultured at 37° C. in 5% CO2 in 25 cm^2 or 75 cm^2 flasks. For hypothermia experiments, cells were plated in 6 or 96 wells plates and grown to confluence. Thereupon, cells were placed at 3° C. for up to 24 hours. Cell survival was measured by counting of trypan blue stained cells or MTS assay, which measures the number of viable cells. For the latter, 20 μl of MTS solution was added to each well and cells were subsequently placed in the incubator at 37° C. in 5% CO2 for 3 hr before assessing the cell survival by measuring absorption using a microplate reader at 490 nm.
# as §1
# DDT-1 cells [5] = assay: H2S content of DDT-1 cells (methylene blue method); format: cell-based, hamster; details: hypothermia, at 24 h
# Protocol: as §2
# CBS [6] = biological target: T1, CBS (Homo sapiens, UniProt P35520); details: binding to CBS; cited from earlier work
# T1 sequence (P35520 1-551): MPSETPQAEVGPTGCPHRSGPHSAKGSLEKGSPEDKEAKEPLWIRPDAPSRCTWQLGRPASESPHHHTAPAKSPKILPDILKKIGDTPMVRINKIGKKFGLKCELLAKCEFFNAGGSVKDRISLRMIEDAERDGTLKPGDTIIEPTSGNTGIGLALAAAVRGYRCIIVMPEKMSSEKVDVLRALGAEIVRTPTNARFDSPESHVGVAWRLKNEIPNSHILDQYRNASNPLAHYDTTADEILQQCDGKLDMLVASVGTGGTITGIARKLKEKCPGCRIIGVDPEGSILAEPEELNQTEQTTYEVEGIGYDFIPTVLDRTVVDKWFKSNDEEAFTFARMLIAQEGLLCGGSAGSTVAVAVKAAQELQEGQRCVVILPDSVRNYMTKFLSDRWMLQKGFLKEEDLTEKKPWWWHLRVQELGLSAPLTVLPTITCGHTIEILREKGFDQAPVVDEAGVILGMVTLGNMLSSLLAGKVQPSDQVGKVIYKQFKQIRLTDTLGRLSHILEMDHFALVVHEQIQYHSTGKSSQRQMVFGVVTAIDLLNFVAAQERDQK
# CBS [7] = assay: CBS expression in normothermic and hypothermic rat tissue (immunostaining); details: liver, pancreas, lung, kidney, heart; 3° C., 24 hr
# Description: Two rats (rattus norvegicus) were sacrificed and blood was taken out. The tissues were flushed by either PBS as control or PBS plus dopamine. Liver, pancreas, lung, kidney and heart were harvested. […] Tissues were fixed after being taken out of cold room. The tissues were later embedded in Paraffin, cut into 5 μm sections and stained with CBS antibody.
# [8] = Serum H2S concentration in rats (methylene blue method); format: in vivo, rat; details: throughout cooling and rewarming procedure, compared to control
# male Wistar rats = assay: In vivo protection from hypothermic liver damage (FABP1 expression); design: species or system rat; details: rats cooled to 15° C. for 3 hr and rewarmed to 37° C.; compared to non-cooled control
# Protocol: (§3) Three groups of male Wistar rats (350-400 gr) were investigated: cooled rats either anesthetized with propofol or ketamine (n=6 each); a non-cooled control group briefly anesthetized with isofluran was sacrificed at 37° C. (n=3). After anesthesia with isofluran, the trachea was intubated with a […] cuffed tube and mechanical ventilation was started with air. A 5F central venous catheter was introduced in the internal jugular vein for blood sampling, hydration and administration of the anesthetic. A catheter was inserted in the common carotid artery for continuous monitoring of systemic arterial pressure and for blood gas analysis. Cardiovascular and oxygen saturation monitoring was performed during the entire procedure. After preparation, isoflurane was stopped and anesthesia was maintained with either propofol-Lipro (20 mg/m; Braun, Melsungen, Duitsland) at 2 ml/h or ketamine 0.6 ml/hr for 1 hr. Cooling of the animals was accomplished by an external cooling blanket and ice packs. […] Rats were kept at this temperature for 3 hr, followed by rewarming to 37° C. in about 1 hr using a heating blanket and warm air. The rats were then kept at 37° C. for another hr, followed by sacrification by exsanguination. Blood sampling was performed at the end of the preparation period and every hr after the body temperature reached 15° C. […]
# CBS [9] = assay: CBS expression in liver of cooled and rewarmed rats; format: in vivo, rat; details: rats cooled to 15° C. for 3 hr and rewarmed; compared to controls
# Protocol: as §3, with “exsanguination.” for “exsanguination. Blood sampling was performed at the end of the preparation period and every hr after the body temperature reached 15° C.”
# CBS (cystathionine betasynthase) expression was also measured as the one of the main enzymes producing H2S in the liver.
structure (smiles),measurement,setting,value
"N[C@@H](Cc1ccc(Cl)cc1)C(=O)O (racemic) [PCPA, parachlorophenylalanine]",DDT-1 survival following hypothermia after PCPA pretreatment,DDT-1 cells [1]; 48 hr,concentration-dependently decreased; also recorded: blocked
same,decrease in indoleamine content of the cells,DDT-1 cells [2],50±10%
"NCC(CC(=O)O)c1ccc(Cl)cc1 (racemic) [baclofen, (RS)-4-amino-3-(4-chlorophenyl)butanoic acid]",H2S production,SMAC cells [3],increased H2S production
CN(CC(=O)O)C(=N)N.O=S(=O)(O)O [Creatine sulfate],protection against hypothermic cell death / reduction in number of cells,"SMAC cells [4]; SMAC cells, 24 h at 3° C., substance added 15 min before hypothermia",did not show any protective effects
CNCCC(Oc1ccc(C(F)(F)F)cc1)c1ccccc1 (stereo not drawn) [Fluoxetine],resistance / survival of DDT-1 cells in hypothermia,DDT-1 cells [1],death of more than half of these cells
same,effect on the protective effect of serotonin on hypothermic SMAC cells,SMAC cells [4],complete annihilation of the protective effect of serotonin
same,H2S concentration inside DDT-1 cells,DDT-1 cells [5],lower concentration of H2S
O=C(c1ccc(F)cc1)C1CCN(CCn2c(=O)[nH]c3ccccc3c2=O)CC1 [Ketanserine],resistance / survival of DDT-1 cells in hypothermia,DDT-1 cells [1],did not affect the resistance
same,effect on the protective effect of serotonin on hypothermic SMAC cells,SMAC cells [4],nor did it affect the protective effect of serotonin
"Cc1ncc(COP(=O)(O)O)c(C=O)c1O [PLP, Pyridoxal 5-Phosphate]",free energy of binding reported for PLP,CBS [6],-4.81 kcal/mol
"NCCc1ccc(O)c(O)c1 [dopamine, 2-(3,4-dihydroxyfenyl)ethylamine]",H2S production,SMAC cells [3],increased H2S production
same,CBS expression in hypothermic rat tissue,CBS [7],increased expression; also recorded: upregulation of CBS
"NCCc1c[nH]cn1 [histamine, 4-(2′-aminoethyl)-imidazol]",H2S production,SMAC cells [3],increased H2S production
"CNC1(c2ccccc2Cl)CCCCC1=O (stereo not drawn) [ketamine, reference compound]",Serum H2S concentration,[8],decreased
same,"liver damage, FABP1 expression in liver",male Wistar rats,decreased expression of FABP1
same,CBS expression in liver,CBS [9],significantly lowered
"COc1ccc2[nH]cc(CCNC(C)=O)c2c1 [melatonin, N-[2-(5-methoxy-1H-indol-3-yl)ethyl]acetamide]",H2S production,SMAC cells [3],increased H2S production
"CC(C)c1cccc(C(C)C)c1O [propofol, 2,6-diisopropylfenol]",H2S production,SMAC cells [3],increased H2S production
same,Serum H2S concentration,[8],increased
same,"liver damage, FABP1 expression in liver",male Wistar rats,protects liver tissue against in vivo hypothermia
same,CBS expression in liver,CBS [9],induces expression of cystathionine beta synthase; also recorded: increased the expression of CBS
